Assay [1] deals with T1, 5-lipoxygenase (Cavia porcellus, UniProt A0A286X958).
T1 construct: A-23187-stimulated guinea pig polymorphonuclear leukocytes; endogenous in cells; host or cells: guinea pig polymorphonuclear leukocytes
T1 sequence (A0A286X958 1-674): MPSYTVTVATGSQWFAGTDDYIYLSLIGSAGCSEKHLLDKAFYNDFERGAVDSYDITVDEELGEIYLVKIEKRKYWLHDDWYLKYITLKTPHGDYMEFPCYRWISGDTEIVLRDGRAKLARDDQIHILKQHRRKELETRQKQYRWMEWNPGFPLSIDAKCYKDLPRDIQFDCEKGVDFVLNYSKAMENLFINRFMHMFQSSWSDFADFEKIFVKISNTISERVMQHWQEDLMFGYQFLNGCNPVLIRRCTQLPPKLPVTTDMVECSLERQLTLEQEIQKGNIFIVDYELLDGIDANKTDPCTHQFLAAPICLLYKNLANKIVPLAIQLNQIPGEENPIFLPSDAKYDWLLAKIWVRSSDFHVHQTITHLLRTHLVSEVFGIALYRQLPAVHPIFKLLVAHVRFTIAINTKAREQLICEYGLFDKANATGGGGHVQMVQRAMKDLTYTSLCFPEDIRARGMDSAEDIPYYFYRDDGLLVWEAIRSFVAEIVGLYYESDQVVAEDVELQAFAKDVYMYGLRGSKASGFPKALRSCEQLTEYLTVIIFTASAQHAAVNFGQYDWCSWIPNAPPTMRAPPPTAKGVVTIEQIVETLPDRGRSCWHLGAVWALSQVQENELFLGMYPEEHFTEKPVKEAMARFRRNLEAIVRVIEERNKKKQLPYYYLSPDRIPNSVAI
The experiment in a line: inhibition of 5-HETE and LTB4 synthesis in A-23187-stimulated guinea pig polymorphonuclear leukocytes. Format: cell-based. The settings on record: also printed as 1×10^-7 M, read-out: IC50, inhibition of the formation of 5-HETE and leukotriene B4 (LTB4). As for the experimental part: 5-Lipoxygenase inhibition is determined e.g. by measuring the percent inhibition of the synthesis of 5-HETE [(5S)-5-hydroxy-6,8,11,14-eicosa-tetraenoic acid] and leukotriene B4 (LTB4, 5,12-dihydroxy-6,8,10,14-eicosatetraenoic acid) in A-23187-stimulated guinea pig polymorphonuclear leukocytes, essentially according to radiometric thin-layer chromatographic assays described by Walker and Dawson (J. Pharm. Pharmacol. 31: 778, 1979) and Jakschik and Lee (Nature 287: 51, 1980) used to measure the formation of 5-HETE and LTB4 -like products from ^14 C-arachidonic acid. IC50 values are determined graphically as the concentration of test compound at which the synthesis of 5-HETE and LTB4 -like products is reduced to 50% of their respective control values.
(§1) Illustrative of the invention, the compound of example 1a, (E)-3-(1-cycloheptyl-1H-pyrrol-3-yl)-N-hydroxy-N-methyl-2-propenamide, inhibits the formation of 5-HETE [(5S)-5-hydroxy-6,8,11,14-eicosatetraenoic acid] and leukotriene B4 (LTB4, 5,12-dihydroxy-6,8,10,14-eicosatetraenoic acid) in A-23187-stimulated guinea pig polymorphonuclear leukocytes, e.g. at an IC50 of about 0.1 micromolar (1×10^-7 M).

Assay [2] has as its system 5-lipoxygenase. Kind of assay: ex vivo inhibition of A-23187-stimulated LTB4 formation in whole blood after oral administration. The settings on record: dose of about 3 mg/kg p.o. to the dog. As for the experimental part: Furthermore, the inhibition of 5-lipoxygenase is determined after oral or i.v. administration to rats or dogs by measuring ex vivo in whole blood the decrease of A-23187-stimulated LTB4 formation as compared to non-treated control animals.
as §1

In assay [3] the test system is rat pleurisy model of inflammation. The experiment in a line: carrageenin-induced pleurisy model, exudate volume. The settings on record: 10 mg/kg p.o. for two days at -1, 6, 24 and 45 hours relative to carrageenin injection, 48 hours after injection. Format: in vivo.

pIC50: −log10 of the molar value.

As for `CN(O)C(=O)/C=C/c1ccn(C2CCCCCC2)c1` [example 1a, (E)-3-(1-cycloheptyl-1H-pyrrol-3-yl)-N-hydroxy-N-methyl-2-propenamide], the pIC50 in assay [1] is around 7.00. For the same compound, the “inhibition of LTB4 formation as determined ex vivo” value in assay [2] was 50%. The “inhibition of exudate volume” value in assay [3] is given as “causes inhibition of exudate volume”.

The values are drawn from patent US4960787A, “Certain pyrrolyl-substituted hydroxamic acid derivatives” (Ciba-Geigy Corporation, priority 1989, dated 1990).
